The results in this text go back to a melting point compilation (Tetko et al.; mined from patent text by program, amines drawn as free bases though some values may be those of a salt).

Each structure is given as a SMILES string.

As a reminder, the melting point is the temperature, or range, at which the solid turns liquid. With `COc1cc(OC)c2c(=O)[nH]c(-c3cc(C)c(OCC(=O)O)c(C)c3)nc2c1`, the melting point was 270 to 272 °C. Molecule `N#CN1CCC(c2n[nH]c3cc(Cl)ccc23)CC1` gave a melting point of 180 to 188 °C. Then `NC(=O)c1nnn(Cc2c(Cl)cccc2Cl)c1N`, with 243 to 245 °C; and `CCn1c(Oc2cccc(NS(C)(=O)=O)c2)nnc1[C@@H](C)NS(=O)(=O)c1ccc(Cl)c(Cl)c1`, with 117 to 118 °C; and `CCCCCCCCn1c(C)c(C(=O)c2ccccc2C(=O)O)c2ccccc21`, with 121 to 123 °C.

For `O=C(O)c1[nH]c(=O)c2ccc(Cl)cc2c1-c1ccccc1`, the melting point is more than 300 °C. With `CC(C)C[C@H](NC(=O)OCc1ccccc1)C(=O)N[C@@H](Cc1ccccc1Cl)C(=O)CSCc1ccco1`, the melting point was 110 °C.

As for `N#Cc1ccc(OCCNC(=O)C2Cc3ccccc3N2S(=O)(=O)c2ccc(-c3cccc(C(F)(F)F)c3)cc2)cc1` (stereo unspecified), the melting point was 70 to 80 °C. `CCCCOc1ccc(S(C)(=O)=O)cc1-c1nc2c(CC)n(CCOC)nc2c(=O)[nH]1` showed a melting point of 174 to 176 °C. For `CCCS(=O)(=O)Nc1c(C)cc(OC(=O)NC)cc1C`, the melting point is 173 to 176 °C. For the molecule `CSc1nnc(Sc2cc(C(C)(C)C)c(O)c(C(C)(C)C)c2)s1`, the melting point was 144 to 145 °C. As for `Cc1cc(Cl)ccc1N=C1NCCN1`, the melting point was 137 to 138 °C. The value for `Nc1nnc(-c2cc3c(Oc4ccc(Cl)cc4)cncc3s2)[nH]1` was more than 270 °C; that for `Fc1cc2c(c(-c3c(Cl)cccc3Cl)c1)OC(CNC1CCC1)C2` (stereo unspecified) was 128 to 130 °C; that for `Cc1ccc(-c2c(-c3ccc(S(C)(=O)=O)cc3)cnn(CC(F)(F)F)c2=O)cc1` was 154 to 156 °C.

On to `O=C(c1ccc2c(c1)OCC(c1ccccc1)=N2)N1CCOCC1`, for which the melting point is 175 to 177 °C. In turn, `O=c1ccc(Cl)cn1[C@@H]1c2ccccc2OCC[C@H]1O` (relative stereo) displayed a melting point of 176 to 178 °C. Then `CCCOc1cc2c(=O)c3ccccc3sc2cc1Cl`, with 101 to 102 °C; and `O=C(O)C1CCc2c(c3ccccc3n2C(=O)c2ccc(F)cc2)C1` (stereo unspecified), with 180 to 182 °C; and `CCN(CC)C(=O)c1cc(-c2ccccc2)c(=O)[nH]c1-c1c(Cl)cccc1C#N`, with 237 to 240 °C. Take `CCCNC(=O)c1c(N)cc(Cl)cc1Cl`: the melting point was in the range of 113 to 119 °C. In turn, `CC(=O)[NH+]([O-])C[C@@H]1CN(c2ccc(N3CCOCC3)c(F)c2)C(=O)O1` (stereo partly specified) showed a melting point of 202 to 204 °C. `O=C(c1cc2cc(O)ccc2[nH]1)C12CC3CC(CC(C3)C1)C2` yielded a melting point of 197 to 199 °C.

Consider `CN(C)Cc1nc(C(=O)O)nn1-c1ccc(Cl)cc1C(=O)c1ccccc1`, for which the melting point fell in the range of 160 to 165 °C. Molecule `NS(=O)(=O)c1ccc(-n2cc(-c3ccccc3)cc2-c2ccc(F)cc2)cc1` gave a melting point of 192 to 194 °C. The molecule `Cn1nc(C(=O)O)c(=O)n(-c2ccc(Cl)cc2)c1=O` gave a melting point of 234 to 236 °C. The molecule `O=C(CCC(=O)N1CCC(N2Cc3ccccc3NC2=O)CC1)c1ccc(Cl)c(Cl)c1` gave a melting point of 224 to 226 °C. The molecule `COc1cc(C(=O)NS(=O)(=O)c2ccccc2C)ccc1Cc1cccc2ccc(C(=O)NCC(C)C)cc12` registered a melting point of 212 to 214 °C. For `C=CCOc1cc(NCC)c(C(C)=O)cc1C(C)=O`, the melting point was in the range of 82 to 83 °C.

Molecule `CC1CC(C(=O)O)NC1=O` (stereo unspecified) yielded a melting point of 169 to 170 °C. Molecule `CS(=O)(=O)c1ccc(-c2cnn(-c3ccc(F)c(Cl)c3)c(=O)c2-c2ccc(F)cc2)cc1` had a melting point of 155 to 157 °C. The molecule `c1ccc(-c2cc(OCC3CO3)no2)cc1` (stereo unspecified) showed a melting point of 98 to 99 °C.

In the case of `Cc1cc(SC(=O)N(C)C)c(C(C)(C)C)cc1CO`, the melting point amounted to 136 °C. Consider `COc1cc(OCc2ccccn2)c(C=O)cc1-c1cccs1`, for which the melting point lay in the range of 93 to 94 °C.

`CSC(=S)Nc1ccc(OCc2nc3ccccc3s2)cc1C` gave a melting point of 133 to 135 °C.

`CNS(=O)(=O)c1sccc1C(C)=O` came in with a melting point of 101 to 103 °C.

On to `CC1CCN(c2ccccc2C(=O)c2ccccc2)CC1`, for which the melting point worked out at 82 °C.

For the molecule `COc1ccc(C(=O)CN2CCN(C(c3ccccc3)c3ccccc3)CC2)c(OC)c1OC`, the melting point is 119 °C.

The molecule `CCCCCCCCC=CCCCCCCCCOCC(CN(C)C)OCCCCCCCCC=CCCCCCCCC` (stereo unspecified) registered a melting point of 35 to 38 °C. As to `CCn1c2c(c3ccccc31)SCCC2(C)C=O` (stereo unspecified), the melting point was 88.5 to 90 °C. In turn, `CCCCCCCCCCc1ccc2cc(OS(=O)(=O)C(F)(F)F)c(SC)cc2c1` showed a melting point of 42 to 42.9 °C. In turn, `Nc1cc(S(=O)(=O)c2ccccc2)ccc1Cl` had a melting point of 105 to 107 °C. `CC(C)[C@H](NC(=O)N(C)Cc1ccccn1)C(=O)N[C@@H](Cc1ccccc1)C[C@H](O)[C@H](Cc1ccccc1)NC(=O)[C@@H](NC(=O)N(C)Cc1ccccn1)C(C)C` had a melting point of 92 to 96 °C. The value for `CCOC(=O)C1(Br)Oc2cc(OC(C)=O)ccc2OC1Br` (stereo unspecified) was 131 °C. Consider `O=C(NCc1cccc(C(F)(F)F)c1)c1ccc2n1Cc1ccccc1N(C(=O)COc1ccc(Cl)cc1)C2`, for which the melting point lay in the range of 143 to 145 °C.

The molecule `Cc1c(C)c(Cl)c2[nH]c(Cl)nc2c1Cl` displayed a melting point of 280 to 285 °C. Then `CCC(=O)SCC(CC(=O)c1ccccc1)C(=O)O` (stereo unspecified), with 76 to 78 °C; and `O=C(CN1C(=O)C(NC(=O)c2cc3ccccc3[nH]2)C(c2ccccc2)Sc2ccccc21)NCCc1ccccc1` (stereo unspecified), with 157 to 163 °C; and `CSc1ccc(CN(C2CCOCC2)S(=O)(=O)c2ccc(Cl)cc2)cc1`, with 124 to 127 °C. Regarding `CN(C)Cc1nc(-c2ncn3c2[C@@H]2CCN2C(=O)c2c-3ccc(F)c2Cl)no1`, the melting point was 166 to 169 °C. In the case of `CC(=S)NC[C@H]1CN(c2ccc3c(c2)CCCc2cnoc2-3)C(=O)O1`, the melting point was 185 to 195 °C. Then `CCCCc1nc2cccc(C(=O)OCOC(=O)C(C)(C)C)c2n1Cc1ccc2nc(-c3ccccc3-c3nnn[nH]3)ncc2c1`, with 126 to 128 °C; and `CCOCCn1cc2c(C3C(=O)Nc4ccc(Br)cc43)nc(NCC(C)O)nc2n1` (stereo unspecified), with 298 to 300 °C. Then `CCN(CC)CCNC(=O)COc1cccc(-n2nc(-c3ccc(F)cc3)c3cccnc32)c1`, with 137 to 138 °C; and `COc1ccc2c(c1)c(=O)[nH]c1c2c2ccccc2n1C`, with 250 °C; and `COc1ccc(-c2cnn3ccc(-c4ccc(OCCCNC(=O)OC(C)(C)C)c(OC)c4)nc23)cc1OC`, with 131 to 133 °C. `CCNC(=O)n1nc(Oc2c(Cl)cc(C(F)(F)F)cc2Cl)cc1CC` showed a melting point of 86 to 89 °C. The value for `O=S(=O)(F)c1ccccc1S(=O)(=O)F` was 130 to 131 °C; that for `CS(=O)(=O)Nc1ccc(-c2ccc(C(=O)NCCCCN3CCC(c4ccc5c(c4OCCO)CCCC5)CC3)cc2)cc1` was 216 °C. The molecule `Oc1cccc(-n2cnc(-c3ccccc3)c2)c1` showed a melting point of 195 to 197 °C.

`COc1ccc(-c2c(Cl)nc(Cl)nc2-c2ccccc2)cc1`: the melting point lay in the range of 132 to 134 °C. Consider `COc1ccc(C2=CCOCC2)cc1[N+](=O)[O-]`, for which the melting point was 117 to 120 °C. Molecule `Cc1c(C(=O)O)nnn1Cc1c(F)cccc1F` came in with a melting point of 166 to 167 °C. For `CC(C)N1C(=O)NC(c2cccnc2)c2cc3c(cc21)OCO3` (stereo unspecified), the melting point lay within 172 to 174 °C. The value for `Nc1nc(CCc2ccccc2)nc2oc(-c3ccco3)nc12` was 206 to 208 °C; that for `Cc1cc(C2(C(F)(F)F)C=NC(c3ccccc3)C2)ccc1NC(=O)c1cccc(I)c1C(=O)NC(C)C` (stereo unspecified) was 118 to 120 °C. As to `NC(=O)Cc1cccc(C(=O)c2ccc(Cl)cc2)c1N`, the melting point lay within 212 to 215 °C. `NC(=O)c1ncn2c(-c3cccc(C(F)(F)F)c3)ccnc12` showed a melting point of 239 to 240 °C. `Cc1cc(OC(=O)N(C)SSC(C)(C)C)cc(C)c1N=Cc1ccccc1O` came in with a melting point of 121 to 124 °C. In the case of `Fc1ccccc1C1CCN(Cc2ccccc2)CCN1Cc1ccccc1` (stereo unspecified), the melting point was in the range of 82 to 83 °C.

As to `C=C(C)CO[C@H]1[C@H](C)OC(=O)[C@@H](NC(=O)c2nccc(OC)c2OCc2ccccc2)COC(=O)[C@@H]1Cc1ccccc1`, the melting point lay within 50 to 52 °C.

The molecule `COc1ccc2[nH]c(=O)[nH]c(=O)c2c1OC` yielded a melting point of 266 to 268 °C. Turning to `COc1cc2c(cc1OC)CN(CCc1ccc(NC(=O)c3cccc4c(=O)c5cccc(OC)c5[nH]c34)cc1)CC2`, the melting point is 215 to 225 °C. Molecule `COC(=O)c1ccc(C2=N[C@H]3CCCC[C@H]3c3cc(OC)c(OC)cc32)cc1` (racemic) returned a melting point of 122 °C. In turn, `CNc1nc(Nc2cccc(OCCNC(=O)OC(C)(C)C)c2)ncc1[N+](=O)[O-]` yielded a melting point of 193 °C. In turn, `NS(=O)(=O)c1ccc(SCCO)s1` yielded a melting point of 46.5 to 47.5 °C. As for `COc1cc(O)c2c(=O)c3ccccc3n(C)c2c1`, the melting point lay in the range of 162 to 164 °C.

`CS(=O)(=O)OCCc1cc([N+](=O)[O-])ccc1COS(C)(=O)=O` came in with a melting point of 88 to 89 °C. `CC(C)(C)OC(=O)N1CCC(c2ccc(COc3cccc([N+](=O)[O-])c3)nc2)CC1` displayed a melting point of 94 to 96 °C.

`CC(C)(C)c1cc(CCc2ccc(F)cc2NC(=O)NC2CCN(Cc3ccccc3)CC2)cc(C(C)(C)C)c1O` returned a melting point of 118 to 119 °C.

`CCOC(=O)c1[nH]c2c(C)ccc(C)c2c1C(=O)OC`: the melting point lay within 128 to 129 °C. Then `CC(C)(C)c1ccc(-c2cc(Oc3ccc4[nH]ccc4c3)ncn2)cc1`, with 143 to 145 °C; and `CC(Cc1nc(-c2ccccc2)cc2ccccc12)C(=O)O` (stereo unspecified), with 184 °C; and `Cc1nn(C)c(C(=O)N(C)C)c1[N+](=O)[O-]`, with 57 to 59.5 °C. `CC(=O)SC(C(=O)c1cccc(F)c1)C(C)C(=O)N1CCC[C@H]1C(=O)O` (stereo partly specified) had a melting point of 158 to 159 °C. Turning to `CC(C)(C)OC(=O)N1CCC(C(=O)c2nc3ccccc3s2)CC1`, the melting point was in the range of 94 to 95 °C.
